{
  "source": "patent US11591634B1",
  "about": "“Forecasting bacterial survival-success and adaptive evolution through multiomics stress-response mapping and machine learning” (priority 2019, dated 2023)",
  "key": {"[1]": {"tested_on": "S. pneumoniae serotype 23F", "assay": "Fitness outcome under ciprofloxacin (growth curve assay)", "type": "cell-based, Streptococcus pneumoniae", "settings": "S. pneumoniae 23F", "method": "(§1) Since the single-timepoint variant of entropy is the most practical (in terms of data collection and cost), the generalizability of entropy to previously unseen species was evaluated using this model. RNA-Seq was performed at 120 min post exposure to 1 μg/mL of CIP. […] Single-timepoint entropy was computed for the transcriptome of each of these previously unseen isolates.\n(§2) S. pneumoniae strain TIGR4 (T4; NC_003028.3) is a serotype 4 strain originally isolated from a patient^3,4, Taiwan-19F (19F; NC_012469.1) is a multi-drug resistant strain^5,6 and D39 (NC_008533) is a commonly used serotype 2 strain originally isolated from a patient about 90 years ago^7. Strain PG1 and PG19 were isolated from adults with pneumococcal bacteremia infection and included in the Pneumococcal Bacteremia Collection Nijmegen (PBCN)^8. All S. pneumoniae gene numbers refer to the T4 genome. Correspondence between homologous genes among S. pneumoniae strains and gene function annotations are described herewith. Escherichia coli strain AR538, Klebsiella pneumoniae strain AR497 and Salmonella enterica subsp Typhimurium strain AR635 were clinical isolates obtained from the Center of Disease Control (CDC). Staphylococcus aureus strain MN6 was kindly provided by George Sakoulas (Center of Immunity, Infection & Inflammation, UCSD School of Medicine). Unless otherwise specified, S. pneumoniae strains were cultivated in Todd Hewitt medium with 5% yeast extract (THY) with 5 μL/mL oxyrase (Oxyrase, Inc) or on sheep's blood agar plates (Northeastern Laboratories) at 37° C. with 5% CO2. A. baumannii, E. coll. K. pneumoniae, S. aureus and S. Typhimurium were cultured in Mueller Hinton broth II (Sigma) at 37° C. with 220 rpm constant shaking. Tn-Seq and RNA-Seq experiments of S. pneumoniae under nutrient-depletion and antibiotic conditions were performed in chemically defined medium (CDM)^9 and semi-defined minimal medium (SDMM)^10, respectively. RNA-Seq experiments for A. baumannii, S. Typhimurium, E. coll. K. pneumoniae, and S. aureus were performed in Mueller Hinton broth II. Single strain growth assays were performed at least three times using 96-well plates by taking OD600 measurements on a Tecan Infinite 200 PRO plate reader."}, "S. pneumoniae serotype 1": {"tested_on": "S. pneumoniae serotype 1", "assay": "Fitness outcome under ciprofloxacin (growth curve assay)", "type": "cell-based, Streptococcus pneumoniae", "settings": "1 μg/mL ciprofloxacin", "method": "as §1, §2"}, "[2]": {"tested_on": "Staphylococcus aureus MN6", "assay": "Fitness outcome under ciprofloxacin (growth curve assay)", "type": "cell-based", "settings": "S. aureus MN6", "method": "as §1, §2"}, "[3]": {"tested_on": "Klebsiella pneumoniae AR497", "assay": "Fitness outcome under ciprofloxacin (growth curve assay)", "type": "cell-based", "settings": "K. pneumoniae AR497", "method": "as §1, §2"}, "Escherichia coli AR538": {"tested_on": "Escherichia coli AR538", "assay": "Fitness outcome under ciprofloxacin (growth curve assay)", "type": "cell-based", "settings": "E. coli AR538", "method": "as §1, §2"}, "[4]": {"tested_on": "Salmonella Typhimurium AR635", "assay": "Fitness outcome under ciprofloxacin (growth curve assay)", "type": "cell-based", "settings": "S. Typhimurium AR635, 1 μg/mL ciprofloxacin", "method": "as §1, §2"}, "S. pneumoniae 19F": {"tested_on": "S. pneumoniae 19F", "assay": "Fitness outcome under antibiotic exposure (growth curve assay)", "type": "cell-based, Streptococcus pneumoniae", "method": "(§3) To test whether a gene-panel model can be trained that predicts fitness for many different conditions, a large RNA-Seq dataset was generated for the human pathogen Streptococcus pneumoniae. […] These include cell wall synthesis inhibitors (CWSI), DNA synthesis inhibitors (DSI), protein synthesis inhibitors (PSI) and RNA synthesis inhibitors ((RSI); FIG. 1A, Tables 1 & 2). Each strain was exposed to each antibiotic for 2 to 4 hours and cells were harvested for RNA-Seq at various time points. As T4 and 19F are susceptible to most antibiotics used, the transcriptional profiles in the presence of antibiotics mostly represent cases of low fitness (FIG. 1A, sensitive strain, 1xMICWT). In order to find patterns that differentiate fitness outcomes, adapted strains were generated with increased fitness in the presence of antibiotics by serial passaging wildtype T4 and 19F in the presence of increasing amounts of antibiotics. Four independent adapted populations for each strain were selected on individual antibiotics. These adapted strains could grow in the presence of antibiotic at 1.5xMIC of the wildtype strain, albeit with a small growth defect (FIGS. 6A-6E & 6F). In parallel, RNA-Seq was performed on S. pneumoniae strains D39 and T4 in a chemically defined medium, and media from which either uracil, Glycine or L-Valine was removed, which are essential for D39 but not T4. This enabled the potential identification of a common stress signature that is shared between antibiotic exposure and nutrient deprivation, and across multiple strains. Lastly, D39 was adapted to grow in the absence of each individual nutrient, after which RNA-Seq was repeated for adapted clones (Table 1 lists all 24 strains, 67 populations and 267 RNA-Seq experiments).\nas §2"}, "S. pneumoniae T4": {"tested_on": "S. pneumoniae T4", "assay": "Fitness outcome under antibiotic exposure (growth curve assay)", "type": "cell-based, Streptococcus pneumoniae", "method": "as §3, §2"}, "A. baumannii LAC-4": {"tested_on": "A. baumannii LAC-4", "assay": "Ciprofloxacin MIC determination by growth curves", "type": "cell-based", "settings": "Acinetobacter baumannii, LAC4, read-out: measured MIC", "method": "(§4) Each concentration was tested in triplicate. Growth was monitored on a Tecan Infinite 200 PRO plate reader at 37° C. for 16 hours. MIC is determined as the lowest concentration that abolishes bacterial growth (FIGS. 6A-6H)."}, "A. baumannii ATCC 17978": {"tested_on": "A. baumannii ATCC 17978", "assay": "Ciprofloxacin MIC determination by growth curves", "type": "cell-based", "settings": "Acinetobacter baumannii, ATCC17978, read-out: measured MIC", "method": "as §4"}, "[5]": {"tested_on": "antibiotic-adapted S. pneumoniae 19F (a19F)", "assay": "Fitness outcome under antibiotic exposure (growth curve assay)", "type": "cell-based, Streptococcus pneumoniae", "method": "as §3, §2\n(§5) D39 was used as the parental strain in nutrient-depletion evolution experiments; T4 and 19F were used as parental strains in antibiotic evolution experiments. […] Four replicate populations were serial passaged in CDM or SDMM as controls to identify background adaptations in nutrient or antibiotic adaptation experiments, respectively. […]"}, "[6]": {"tested_on": "antibiotic-adapted S. pneumoniae T4 (aT4)", "assay": "Fitness outcome under antibiotic exposure (growth curve assay)", "type": "cell-based, Streptococcus pneumoniae", "method": "as §3, §2, §5"}, "[7]": {"settings": "1 μg/mL ciprofloxacin, listed as CIP"}, "[8]": {"settings": "1 μg/mL ciprofloxacin, listed as ciprofloxacin"}, "[9]": {"settings": "strain-specific 1xMIC of ciprofloxacin"}},
  "data": [
    {"compound": "O=C(O)c1cn(C2CC2)c2cc(N3CCNCC3)c(F)cc2c1=O", "note": "[Ciprofloxacin, ciprofloxacin]", "values": [
      {"measurement": "Fitness", "setting": "[1]; 1 μg/mL ciprofloxacin", "value": "High"},
      {"measurement": "Fitness", "setting": "[1]; [7]", "value": "insensitive"},
      {"measurement": "Fitness", "setting": "[1]; [8]", "value": "high fitness"},
      {"measurement": "Fitness", "setting": "[1]; [9]", "value": "Low,"},
      {"measurement": "Fitness", "setting": "S. pneumoniae serotype 1", "value": "Low"},
      {"measurement": "Fitness", "setting": "S. pneumoniae serotype 1; listed as ciprofloxacin", "value": "low fitness"},
      {"measurement": "Fitness", "setting": "[2]; 1 μg/mL ciprofloxacin", "value": "High"},
      {"measurement": "Fitness", "setting": "[2]; [7]", "value": "insensitive"},
      {"measurement": "Fitness", "setting": "[2]; [9]", "value": "Low,"},
      {"measurement": "Fitness", "setting": "[3]; 1 μg/mL ciprofloxacin", "value": "High"},
      {"measurement": "Fitness", "setting": "[3]; [7]", "value": "insensitive"},
      {"measurement": "Fitness", "setting": "[3]; [8]", "value": "high fitness"},
      {"measurement": "Fitness", "setting": "[3]; [9]", "value": "Low,"},
      {"measurement": "Fitness", "setting": "Escherichia coli AR538; 1 μg/mL ciprofloxacin", "value": "High"},
      {"measurement": "Fitness", "setting": "Escherichia coli AR538; [7]", "value": "insensitive"},
      {"measurement": "Fitness", "setting": "Escherichia coli AR538; [8]", "value": "high fitness"},
      {"measurement": "Fitness", "setting": "Escherichia coli AR538; [9]", "value": "Low,"},
      {"measurement": "Fitness", "setting": "[4]", "value": "Low"},
      {"measurement": "Fitness", "setting": "[4]; listed as ciprofloxacin", "value": "low fitness"},
      {"measurement": "Fitness", "setting": "S. pneumoniae 19F; S. pneumoniae 19F wild-type, growth curves", "value": "Low"},
      {"measurement": "Survive (real survival outcome)", "setting": "S. pneumoniae 19F; strain 19F, Adapted FALSE, Concentration L (low)", "value": "FALSE"},
      {"measurement": "Fitness", "setting": "S. pneumoniae T4; S. pneumoniae T4 wild-type, 1xMIC antibiotic, growth curves", "value": "Low"},
      {"measurement": "Survive (real survival outcome)", "setting": "S. pneumoniae T4; strain T4, Adapted FALSE, Concentration L (low)", "value": "FALSE"},
      {"measurement": "MIC", "setting": "A. baumannii LAC-4", "value": 8.5, "unit": "µg/mL"},
      {"measurement": "MIC", "setting": "A. baumannii ATCC 17978", "value": 0.07, "unit": "µg/mL"},
      {"measurement": "Fitness", "setting": "[5]; a19F, 19F adapted to the respective antibiotic, 1xMIC and 1.5-2xMIC, growth curves", "value": "High"},
      {"measurement": "Survive (real survival outcome)", "setting": "[5]; strain 19F, Adapted TRUE, Concentration L (low)", "value": "TRUE"},
      {"measurement": "Fitness", "setting": "[6]; aT4, T4 adapted to the respective antibiotic, 1xMIC and 1.5-2xMIC, growth curves", "value": "High"},
      {"measurement": "Survive (real survival outcome)", "setting": "[6]; strain T4, Adapted TRUE, Concentration L (low)", "value": "TRUE"}
    ]}
  ]
}
